The values below come from patent US20240108740A1, “THERAPEUTIC COMPOSITIONS INCLUDING SPN10 AND USES THEREOF” (Stealth BioTherapeutics Inc., priority 2022, published 2024).

For one assay, the system named is high-fat fed rats. Briefly: Example 34: insulin resistance in rats fed a high-fat diet. Type of assay: in vivo, rat. As to the method: On the day of testing, food will be removed 10 hours prior to administration of a 2 g/kg glucose solution via oral gavage. Glucose levels will be determined on whole blood samples (Lifescan, Milpitas, CA, U.S.A.). Serum insulin levels will be determined using a rat/mouse ELISA kit (Linco Research, St. Charles, MO, U.S.A.). Fasting data will be used to determine homeostatic model assessment (HOMA)-calculated as fasting insulin (mU/mL)×fasting glucose (mM)/22.5.
To further assess insulin sensitivity, the phosphorylation state of the insulin signaling protein Akt in skeletal muscle will be measured 1) following a 10 hour fast, and 2) 1 hour after receiving an oral glucose load. It is anticipated that in response to glucose ingestion, Akt phosphorylation will increase in skeletal muscle of standard chow-fed controls but will remain essentially unchanged in high-fat fed rats, confirming the presence of insulin resistance at the level of insulin signaling.

The subject of another assay is Sprague Dawley rats. Briefly: Example 51: burn-induced hypermetabolism and UCP-1 expression in brown adipose tissue. Type of assay: in vivo, rat. The source says: Methods. Sprague Dawley rats will be randomly divided into the following groups; sham (S), sham with saline vehicle (SSal), sham with peptide conjugate-treatment (SC), sham with aromatic-cationic peptides (SC2), sham with SPN10(s) (SC3), sham with SPN10(s)+aromatic-cationic peptides (SC4), burn with saline vehicle (BSal), burn with peptide conjugate-treatment (BC), burn with aromatic-cationic peptides (BC2), burn with SPN10(s) (BC3) and burn with SPN10(s)+aromatic-cationic peptides (BC4). The dorsal aspect of burn subjects will be immersed into 100° C. water for 12 seconds to produce third degree 30% TBSA burns under general anesthesia. Sham burn will be produced by immersion in lukewarm water. Subjects will receive 40 mL/kg intraperitoneal saline injection for the resuscitation following the injury. A venous catheter will be placed surgically into the right jugular vein subsequent to sham or burn injury. […] Indirect calorimetry will be performed for 24 hours at 6 days after burn injury in a TSE Indirect Calorimetry System (TSE Co., Germany), and VO2, VCO2 and energy expenditure will be recorded every six minutes. Interscapullar brown adipose tissue will be collected after the indirect calorimetry, and UCP-1 expression in the brown adipose tissue will be evaluated by Western blot.

For the next assay, the system named is SH-SY5Y cells. Briefly: Example 27: apoptosis caused by oxidative stress (Hoechst 33342). Format: cell-based. The note with it: 0.025 mM t-BHP, 24 hours. As for the experimental part: SH-SY5Y cells will be grown in 96-well plates and treated with t-BHP (0.025 mM) alone or in the presence of peptide conjugates, aromatic-cationic peptides, or SPN10(s) with or without aromatic-cationic peptides at 37° C. for 24 hours. All treatments will be carried out in quadruplicate. Cells will then be stained with 2 mg/mL Hoechst 33342 for 20 minutes, fixed with 4% paraformaldehyde, and imaged using a Zeiss fluorescent microscope (Axiovert 200M) equipped with the Zeiss Acroplan 20× objective. Nuclear morphology will be evaluated using an excitation wavelength of […] and a longpass filter of 400 nm for emission. All images will be processed and analyzed using MetaMorph software (Universal Imaging Corp., West Chester, PA, U.S.A.). Uniformly stained nuclei will be scored as healthy, viable neurons. Cells with condensed or fragmented nuclei will be scored as apoptotic.

For the next assay, the system named is Sprague-Dawley rats. Briefly: Example 41: contrast-induced nephropathy in glycerol-induced rhabdomyolysis. Format: in vivo, rat. The note with it: 25% glycerin + diatrizoate. As to the method: Animal model: This Example will utilize animals subjected to glycerol-induced rhabdomyolysis, as previously described. Parvez, et al., Invest. Radiol., 24:698-702 (1989); Duan, et al., Acta Radiologica, 41:503-507(2000). Sprague-Dawley rats with body weight of 300-400 g will be dehydrated for 24 hours followed by intramuscular (i.m.) injection of 25% glycerol solution (v/v) at the dose of 10 mL/kg. Twenty-four hours later, the animals will be administered a contrast dye with peptide conjugates, aromatic-cationic peptides, SPN10(s) with or without aromatic-cationic peptides, or control vehicle according to the following: 1) 25% glycerin+Saline+PBS (n=6), 2) 25% glycerin+diatrizoate+PBS (n=7), 3) 25% glycerin+diatrizoate+peptide conjugates (n=7), 4) 25% glycerin+diatrizoate+aromatic-cationic peptides (n=7), 5) 25% glycerin+diatrizoate+SPN10(s), and 6) 25% glycerin+diatrizoate+SPN10(s)+aromatic-cationic peptides. […] Samples will be analyzed by students t-test and differences will be considered significant at p<0.05.
Renal function: Renal function will be assessed by determining serum and urinary creatinine at baseline, 24 hours after dehydration, and 48 hours following contrast dye administration. Creatinine clearance will be calculated based on serum and urinary creatinine levels and urinary volume. Urinary albumin concentration will be determined using a competition ELISA assay.

Residues, ends and D or L forms follow the SMILES beside them.

Regarding `N=C(N)NCCC[C@H](NC(=O)[C@@H](N)Cc1c[nH]c2ccccc12)C(=O)N[C@@H](Cc1c[nH]c2ccccc12)C(=O)N[C@@H](CCCCN)C(N)=O` [SPN10, H-L-Trp-L-Arg-L-Trp-L-Lys-NH2] (H-WRWK-NH2), the “blood glucose and insulin responses to the oral glucose challenge” value in the assay on high-fat fed rats (2 g/kg glucose, six weeks high-fat diet) was “normalize blood glucose and insulin responses”. In the assay on high-fat fed rats (rat, in vivo), the “Akt phosphorylation in skeletal muscle in response to glucose ingestion” value is listed as “increase Akt phosphorylation” and the “development of insulin resistance (HOMA)” value is listed as “suppress the development of insulin resistance”. For the same compound, the “UCP-1 levels in brown adipose tissue (Western blot)” value in the assay with Sprague Dawley rats (burn groups BC, BC2, BC3, BC4 vs BSal) is given as “lower than in the BSal group”. Besides, in the assay with Sprague Dawley rats (infused for 7 days), the “increase in VO2, VCO2, and energy expenditure after burn” value is listed as “significantly attenuate this effect”. For the same compound, the “apoptosis induced by t-BHP” value in the assay on SH-SY5Y cells is recorded as “prevent SH-SY5Y cell apoptosis”. Also, in the assay with Sprague-Dawley rats, the “albuminuria after contrast dye” value is “attenuate or prevent albuminuria”; the “creatinine clearance after contrast dye” value was “attenuate or prevent reduced creatinine clearance”; the “loss of proximal tubule brush border, glomerular swelling and tubular protein cast deposition (PAS)” value is listed as “attenuate or prevent these effects”.
